The record followed here is US20220127297A1, “Novel Antibacterial 3"-Derivatives Of 4,6-Disubstituted 2,5-Dideoxystreptamine Aminoglycoside Antibiotics” (AGILeBiotics B.V., priority 2018, published 2022).

≈ marks a conversion by molar mass, not a printed value.

The test system of experiment [1] is E. coli (APH(3′)Ia). Description: MIC 50, broth micro-dilution, E. coli expressing APH(3′)Ia. The format is cell-based, Escherichia coli. Particulars: Escherichia coli, ATCC25922, ATCC25922 harboring plasmid encoding APH(3′)Ia. The procedure: (§1) Plasmid transformation. Approximately 500 ng of the pET-9b(+) (Cat. No. 69432-3, Merck), pAT21-1 (provided by Prof. Dr. Patrice Courvalin, M.D., Pasteur Institute, France; prepared according to Trieu-Cuot et. al, Mol. Gen. Genet. 198(2), 348 (1985)), pBluescript::AAC(6′)-Ie/APH(2″)-Ia (provided by Prof. Dr. Sergei Vakulenko, M.D., University of Notre Dame, Ind., USA; prepared according to S. B. Vakulenko et. al., J. Biol. Chem. 287 (52), 43262 (2012)), pBlue_lpp_aacC3_rrnC and pSET152 (Cat. No. PVT3395, Life Science Market; prepared according to Bierman et al., Gene 116 (1), 43 (1992)) plasmids, encoding APH(3′)-Ia (SEQ ID NO:2), APH(3′)-IIIa (SEQ ID NO:3), AAC(6′)Ie-APH(2″)-Ia (SEQ ID NO:4), AAC(3)-III (SEQ ID NO:1), and AAC(3)-IV (SEQ ID NO:5) respectively, were individually incubated in a vial of competent cells for 15 min on ice. The cells were subsequently heated to 42° C. for 90 s, and cooled on ice for 1 min. After addition of 900 μL LB, the cells were incubated for 1 h at 37° C. and 200 rpm. Cells were plated on LB-agar supplemented with 50 μg/mL KanaA and incubated for 18 h at 37° C. The next day, a single colony was inoculated in 5 mL LB supplemented with 50 μg/mL and grown for 18 h at 37° C. and 200 rpm. A 200 μL sample of each culture was diluted with 200 μL of 40% v/v glycerol in water, and stored at −80° C. The plasmid was purified from the remaining culture using the Plasmid Miniprep kit. Plasmid DNA was investigated by Eurofins Genomics (Germany) to confirm the identity of the aminoglycoside resistance genes.
(§2) 3.1 Against E. coli Strains
(§3) Tested reference compounds. Amikacin sulfate (Cat. No. 01693, Chem-Impex), Gentamicin sulfate (Cat. No. G4918, Sigma Aldrich).
(§4) Microbial strains. E. coli ATCC 25922, E. coli ATCC 25922/pET-9b(+), E. coli ATCC 25922/pAT21-1, E. coli ATCC 25922/pBluescript::AAC(6′)-Ie/APH(2″)-Ia, E. coli ATCC 25922/pBlue_lpp_aacC3_rrnC, E. coli ATCC 25922/pSET152.
(§5) Culture media and equipment. BBL™ Mueller Hinton Broth 2 (Lot. BCBW1143, Cat. No. 70192, Sigma); Kanamycin A (Cat. No. A1493, AppliChem); 96-well deep well plate, 1 mL (Cat. No. 0030506.200, Eppendorf); Plate lids (Cat. No. 0030131.525, Eppendorf); 96-well plate, F-bottom (Cat. No. 781602, Brand; Incubator, Infors Multitron Pro); Laminar flow (Heraeus KS12); UV/VIS meter (Eppendorf BioPhotometer Plus); Platereader (Tecan Sunrise).
(§6) Compound preparation. Compounds were prepared in MH2 media at a concentration of 5 mM and stored at 4° C. For testing, solutions of 128 μM were prepared in MH2. Out of these working solutions, 400 μL was transferred to wells in the first column of 96-well deep well plates. Each compound was transferred in triplicate. Plates were previously filled with 200 μL of MH2 media in all wells except for the wells in the first column. After compound and antibiotic addition, the compounds were serial two-fold diluted by transferring 200 μL from the first to the second column, then from the second to the third column and so on. Finally, 200 μL was removed from the last column.
(§7) Inoculum preparation. Microorganisms used were all revived from 20% glycerol (40% v/v glycerol in water was diluted with MH2) storage at −80° C. by inoculating them in 5 mL MH2. inoculums of E. coli containing a plasmid were selected for by adding 50 μg/mL KanaA. The Inoculums were grown to an optical density (measured by UV/Vis spectroscopy) of 0.6-0.8 at 600 nm. Out of these suspensions, actual inoculums were prepared by diluting them to an optical density (OD) of 0.1 in MH2 media. From these inoculums, 200 μL was transferred to each well, resulting in a final compound concentration range of 64 μM-31.3 nM. All plates were incubated at 900 rpm and 70% rH for 18 h at 37° C.
(§8) MIC determination. After 18 h of growth, 200 μL was transferred to a 96-well F-bottom plate. The optical density was determined by a plate reader at 600 nm, with 10 s shaking before reading. Triplicate measurements were averaged, and a growth curve was plotted in Microsoft Excel. […]
(Broth dilution looks for growth in wells or tubes with falling amounts of substance.)

For experiment [2], the system named is E. coli (AAC(6′)Ie-APH(2″)Ia). As to the kind of experiment: MIC 50, broth micro-dilution, E. coli expressing AAC(6′)Ie-APH(2″)Ia. The format is cell-based, Escherichia coli. Particulars: Escherichia coli, ATCC25922, ATCC25922 harboring plasmid encoding AAC(6′)Ie-APH(2″)Ia. The procedure: as §1, §2, §3, §4, §5, §6, §7, §8

What is called MIC50 is the lowest concentration that inhibits either 50% of growth or 50% of the strains tested, depending on the study. Low readings indicate higher susceptibility, high ones lower susceptibility.

With `N=C(NC[C@@H]1CCNC1)NC1[C@@H](O)C(OC2[C@@H](F)[C@H](O[C@H]3OC(CN)[C@@H](O)CC3N)C(N)C[C@H]2NC(=O)[C@@H](O)CCN)O[C@H](CO)[C@H]1O` (stereo partly drawn) [ABX5039, Tobra-AHB-F-Gua (R) pyrrolidine-3-ylmethyl], the MIC50 in experiment [1] and in experiment [2] was 0.25 µM (≈ 0.174 µg/mL) in each case.
Regarding `N=C(NC[C@@H]1CNCCO1)NC1[C@@H](O)C(OC2[C@@H](F)[C@H](O[C@H]3OC(CN)[C@@H](O)CC3N)C(N)C[C@H]2NC(=O)[C@@H](O)CCN)O[C@H](CO)[C@H]1O` (stereo partly drawn) [ABX5040, Tobra-AHB-F-Gua (S) morpholin-2-yl methyl], the MIC50 is 1 µM (≈ 0.712 µg/mL) in experiment [1] and 0.25 µM (≈ 0.178 µg/mL) in experiment [2].
On the same counts, the results for `N=C(NCCCO)NC1[C@@H](O)C(OC2[C@@H](F)[C@H](O[C@H]3OC(CN)[C@@H](O)CC3N)C(N)C[C@H]2NC(=O)[C@@H](O)CCN)O[C@H](CO)[C@H]1O` (stereo partly drawn) [ABX5041, Tobra-AHB-F-Gua 3-hydroxy-propyl] are 1 µM (≈ 0.671 µg/mL) and 0.5 µM (≈ 0.335 µg/mL).
Consider `N=C(NC[C@H]1CCNC1)NC1[C@@H](O)C(OC2[C@@H](F)[C@H](O[C@H]3OC(CN)[C@@H](O)CC3N)C(N)C[C@H]2NC(=O)[C@@H](O)CCN)O[C@H](CO)[C@H]1O` (stereo partly drawn) [ABX5042, Tobra-AHB-F-Gua (S) pyrrolidine-3-ylmethyl], for which the MIC50 in experiment [1] and in experiment [2] was 0.25 µM (≈ 0.174 µg/mL) each time.
For `N=C(NC[C@H]1CNCCO1)NC1[C@@H](O)C(OC2[C@@H](F)[C@H](O[C@H]3OC(CN)[C@@H](O)CC3N)C(N)C[C@H]2NC(=O)[C@@H](O)CCN)O[C@H](CO)[C@H]1O` (stereo partly drawn) [ABX5043, Tobra-AHB-F-Gua (R) morpholin-2-yl methyl], the MIC50 was 0.5 to 1 µM (≈ 0.356 to 0.712 µg/mL) in experiment [1] and 0.25 µM (≈ 0.178 µg/mL) in experiment [2].
For `N=C(N)NC1[C@@H](O)C(OC2[C@@H](F)[C@H](O[C@H]3OC(CNCCO)[C@@H](O)CC3N)C(N)C[C@H]2NC(=O)[C@@H](O)CCN)O[C@H](CO)[C@H]1O` (stereo partly drawn) [ABX5045, 6N-2-hydroxy-ethyl-Tobra-AHB-F-Gua], in that order: 1 µM (≈ 0.657 µg/mL) and 0.5 µM (≈ 0.328 µg/mL).
As to `N=C(NCC1CCCO1)NC1[C@@H](O)C(OC2[C@@H](F)[C@H](O[C@H]3OC(CN)[C@@H](O)CC3N)C(N)C[C@H]2NC(=O)[C@@H](O)CCN)O[C@H](CO)[C@H]1O` (stereo partly drawn) [ABX5046, Tobra-AHB-F-Gua tetrahydrofuran-2-yl methyl], the values for the MIC50 in experiment [1] and in experiment [2] were 1 µM (≈ 0.697 µg/mL) and 0.5 µM (≈ 0.348 µg/mL), respectively.
For `C[C@@H](N)CCNC(=N)NC1[C@@H](O)C(OC2[C@@H](F)[C@H](O[C@H]3OC(CN)[C@@H](O)CC3N)C(N)C[C@H]2NC(=O)[C@@H](O)CCN)O[C@H](CO)[C@H]1O` (stereo partly drawn) [ABX5047, Tobra-AHB-F-Gua (R) 3-amino-butyl], the MIC50 in experiment [1] amounted to 0.5 µM (≈ 0.342 µg/mL); in experiment [2], 0.25 µM (≈ 0.171 µg/mL).
For `N=C(NCc1ccncc1)NC1[C@@H](O)C(OC2[C@@H](F)[C@H](O[C@H]3OC(CN)[C@@H](O)CC3N)C(N)C[C@H]2NC(=O)[C@@H](O)CCN)O[C@H](CO)[C@H]1O` (stereo partly drawn) [ABX5048, Tobra-AHB-F-Gua pyridin-4-yl methyl], in that order: 1 µM (≈ 0.704 µg/mL) and 0.5 µM (≈ 0.352 µg/mL).
On the same counts, the results for `N=C(NCc1cnc[nH]1)NC1[C@@H](O)C(OC2[C@@H](F)[C@H](O[C@H]3OC(CN)[C@@H](O)CC3N)C(N)C[C@H]2NC(=O)[C@@H](O)CCN)O[C@H](CO)[C@H]1O` (stereo partly drawn) [ABX5050, Tobra-AHB-F-Gua imidazol-5-yl methyl] are 2 µM (≈ 1.39 µg/mL) and 1 µM (≈ 0.693 µg/mL).
On the same counts, the results for `N=C(NCC1CCOC1)NC1[C@@H](O)C(OC2[C@@H](F)[C@H](O[C@H]3OC(CN)[C@@H](O)CC3N)C(N)C[C@H]2NC(=O)[C@@H](O)CCN)O[C@H](CO)[C@H]1O` (stereo partly drawn) [ABX5051, Tobra-AHB-F-Gua tetrahydrofuran-3-yl methyl] are 1 µM (≈ 0.697 µg/mL) and 0.5 µM (≈ 0.348 µg/mL).
On to `NCC[C@H](O)C(=O)N[C@@H]1C[C@H](N)[C@@H](O[C@H]2O[C@H](CN)[C@@H](O)[C@H](O)[C@H]2O)[C@H](O)[C@H]1O[C@H]1O[C@H](CO)[C@@H](O)[C@H](N)[C@H]1O` [Amikacin, amikacin, reference compound], for which the MIC50 in experiment [1] is 8 µM (≈ 4.68 µg/mL); in experiment [2] it was 4 to 8 µM (≈ 2.34 to 4.68 µg/mL).
